Reference: PubChem BioAssay AID489024 (Sanford-Burnham Center for Chemical Genomics, 2010)
Calls of active or inactive are those of the source.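 The calls were made as follows: active = compounds whose mean EC50, the dose giving half the maximal reporter activation, is at or below a set limit; inactive = the rest.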

What follows are molecules tested against CHO-CHOP luciferase reporter, UPR activation, luminescence (assay: CHOP reporter induction, apoptotic UPR branch – CHO-CHOP cells, luciferase luminescence, confirmation (AID 489024);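 also: compounds added alone to reporter cells with no tunicamycin stress co-treatment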).

| Compound | EC50 |
| --- | --- |
| CCOC(=O)/C(=C\c1ccccc1)C(=O)c1cc(C(C)=O)c(Nc2ccccc2)s1 | 6.37 µM |
| O=C(C=C=Nc1ccccc1)C(=O)N=C=Cc1ccccc1 | 5.75 µM |
| COc1ccc(N=c2oc3c(OC)cccc3cc2C(=O)NCc2ccco2)cc1OC | > 80 µM (inactive) |
| Cc1c(C#N)c(NC(=O)CCl)n(Cc2ccccc2)c1C | 14.4 µM |
| FC(F)(F)c1nnc(-c2ccccc2)nc1Sc1ccccc1 | 8.09 µM |
| CC(=O)N(\C=C/C=C/C=C1\Sc2ccccc2C1=O)c1ccccc1 | > 80 µM (inactive) |
| Cc1ccc(-c2nc(NC(=O)c3nn(C)cc3[N+](=O)[O-])sc2C)cc1 | 8.48 µM |
| Cc1cc(C)cc(NC(=O)/C(C#N)=C/c2cn(CC(=O)NCc3ccco3)c3ccccc23)c1 | 7.54 µM |
| CC(C)N1CSC(=S)N(Cc2ccccc2)C1 | 10.6 µM |
| CC1=NN(c2cccc(C(=O)O)c2)C(=O)/C1=C\C=C/c1ccccc1 | 11.7 µM |
| Cc1nn(-c2ccccc2)c(C)c1/C=N/NC(=O)CSc1nc2ccccc2c(=O)n1-c1ccc(Br)cc1 | 9.85 µM |
| CCOC(=O)c1cnc(-n2nc(C)cc2C)nc1NC1CCCCC1 | > 80 µM (inactive) |
| O=C(NC(=S)Nc1ccc(NC(=O)c2cccs2)cc1)c1cc2ccccc2o1 | inactive |
| CC(=O)c1cccc(N=Cc2c(O)c3ccccc3oc2=O)c1 | 9.66 µM |
| Cc1cccc(CSc2cccc3cccnc23)c1 | 7.72 µM |
| O=C(CCl)c1ccc(Cc2ncc(C(F)(F)F)cc2Cl)s1 | 9.69 µM |
| CC(C)N=c1scc(-c2ccco2)n1/N=C/c1ccc(O)c(O)c1 | 1.1 µM |
| Cc1c(NC(=O)CSc2cccc3cccnc23)c(=O)n(-c2ccccc2)n1C | 6.53 µM |
| COC(=O)C1=C(C)N(c2ccc(C)c(C)c2)/C(=C/c2cccs2)C1=O | > 80 µM (inactive) |
| O=C(/C=C\c1ccccc1OC(=O)c1ccccc1F)c1cc2ccccc2o1 | 14 µM |
| C/C(=N\NC(=O)c1cc(-c2cccs2)nc2ccccc12)c1ccccn1 | 4.97 µM |
| Cc1ccc(NC(=O)c2ccc(N/N=C/c3cccc(O)c3)c([N+](=O)[O-])c2)cc1 | 8.03 µM |

| Compound | EC50 |
| --- | --- |
| Cc1ccc(-c2nn3c(C)nnc3s2)cc1NC(=O)c1ccc(-c2ccc(Cl)cc2Cl)o1 | 14 µM |
| C/C(=N\NC(=O)c1ccc(F)cc1)c1ccccn1 | 8.27 µM |
| O=C(/C=C/c1cccnc1)c1ccc(NC(=O)c2cccc(Br)c2)cc1 | inactive |
| Oc1ccc(/C=N/Nc2nc(N3CCCC3)nc(N3CCCC3)n2)cc1O | 2.93 µM |
| O=CC1=C(c2ccccc2)Oc2ccccc2O1 | 12.2 µM |
| CC(C)c1nnc(NC(=O)CCS(=O)(=O)c2nc(-c3cccs3)cc(C(F)(F)F)n2)s1 | 13.5 µM |
| CSc1nnc(NC(=O)c2nc(S(=O)(=O)Cc3ccccc3F)ncc2Cl)s1 | > 80 µM (inactive) |
| COC(=O)C1=C(C)N(c2ccc(C)c(C)c2)/C(=C/c2ccco2)C1=O | 8.53 µM |
| O=S1(=O)Nc2c(ccc3cccnc23)-c2ccccc21 | 3.42 µM |
| C/C(CC(C)(C)C1CCCCC1)=N\NC(N)=S | 12 µM |
| CC(C)C(=O)N1CCN(c2ccc(NC(=O)c3ccc([N+](=O)[O-])o3)cc2)CC1 | 1.64 µM |
| CC(C)c1cccc(-c2ccc3c(c2)S(=O)(=O)c2cccc(C(=O)NCc4ccccc4Cl)c2C3=O)c1 | 4.51 µM |
| CN1/C(=C\C(=O)COC(=O)c2ccc(O)c(O)c2)C(C)(C)c2ccccc21 | 6.67 µM |
| O=C(N/N=C/c1ccccn1)c1ccc(Cl)c(Cl)c1 | 2.93 µM |
| COc1ccc(-c2csc3nc(-c4ccc(C)cc4)oc(=O)c23)cc1OC | > 80 µM (inactive) |
| COc1nc(N)nc(NC(=O)c2cccs2)c1N=O | 17.9 µM |
| CN1C(=O)NC(=O)/C(=C\C=C\c2ccccc2[N+](=O)[O-])C1=O | 10.4 µM |
| COc1ccc(-c2cc(C(F)F)n3ncc(C(=O)n4ccnc4C)c3n2)cc1 | 13.3 µM |
| CCOC(=O)c1cnc(Nc2nc3ccccc3o2)nc1CSC(=S)N(CC)CC | 0.91 µM |
| CCOC(=O)c1ccc(N=C2C(=S)N(c3ccc(C(=O)OCC)cc3)C(=N)N2/N=C/c2ccccc2)cc1 | > 80 µM (inactive) |
| COc1ccc(N=C2S/C(=C\c3ccc(N4CCOCC4)o3)C(=O)N2CCc2c[nH]c3ccccc23)cc1 | 18.4 µM |
| O=C(Nc1nc2c(F)cc(F)cc2s1)c1ccccn1 | 6.35 µM |

| Compound | EC50 |
| --- | --- |
| Brc1ccccc1CN1CCN(Cc2c[nH]c3ccccc23)CC1 | 7.72 µM |
| O=c1c2c3c(sc2ncn1/N=C/c1ccc([N+](=O)[O-])o1)CCCC3 | 7.01 µM |
| Cc1ccn2cc(-c3ccc(O)c(O)c3)nc2c1 | 5.31 µM |
| Cc1cc(C(=O)CCl)c(C)n1-c1cccc(S(=O)(=O)N2CCOCC2)c1 | 7.44 µM |
| COc1cc(OC)cc(C(=O)NC(=S)Nc2cc3oc4ccccc4c3cc2OC)c1 | inactive |
| COc1ccc(/C=C/c2ccc3cccc(O)c3n2)c(OC)c1OC | 8.23 µM |
| O=C(Nc1nc(-c2ccccn2)cs1)c1ccc(Cl)s1 | 6.11 µM |
| COc1ccc(NC(=O)c2nc(S(=O)(=O)Cc3cccc(C)c3)ncc2Cl)c(OC)c1 | 11.5 µM |
| Cc1ccc(-c2nc(SCC(=O)Nc3cc(C)on3)c3c(=O)n(C)c(=O)n(C)c3n2)cc1 | > 80 µM (inactive) |
| CC1(C)CC(=O)C2=C(C1)Oc1nc3ccccc3cc1C2C(C#N)C#N (centres undefined) | > 80 µM (inactive) |
| CCOC(=O)C(CC)(CC)C(=O)/C=C/c1cccc(Br)c1 | 11.8 µM |
| COc1ccc(N=Cc2c(O)c3ccccc3oc2=O)cc1 | 8.64 µM |
| N#CC1(C#N)COC23CCCCC2C1(C#N)C(=N)O3 (centres undefined) | 19.3 µM |
| O=C(CSc1cccc2cccnc12)N/N=C/c1cccnc1 | 7.64 µM |
| CC1CCC/C=C/C2CC(O)CC2C(O)/C=C/C(=O)O1 (centres undefined) | 1.34 µM |
| COc1cc2nc(NC(=O)c3ccc(Cl)cc3)sc(=O)c2cc1OC | inactive |
| C=CCN1C(=O)/C(=C/c2ccc3c(c2)CCCN3CCC)C(=O)NC1=S | 14 µM |
| COc1ccccc1NC(=O)c1cnc(SCC(=O)NCC2CCCO2)n(C)c1=O (centres undefined) | 14.4 µM |
| C=CCN=c1scc(-c2ccco2)n1/N=C/c1ccc(O)c(O)c1O | inactive |
| COc1ccccc1N1CCN(/N=C/c2ccc(O)c(O)c2)CC1 | 2.36 µM |
| Cc1cccnc1Nc1nc(-c2ccc(O)c(O)c2)cs1 | 3.48 µM |
| CC1=NOC(=O)/C1=C\c1ccc(-c2cccc(Cl)c2)o1 | 13.1 µM |

| Compound | EC50 |
| --- | --- |
| Cn1c(SCC(=O)NCC2CCCO2)ncc(C(=O)Nc2ccc(Cl)cc2)c1=O (centres undefined) | 16 µM |
| O=C(Nc1ccc(C(F)(F)F)cc1)c1cc(-c2cccnc2)nc2ccc(Br)cc12 | 8.66 µM |
| O=S(=O)(Nc1cccc2cccnc12)c1ccccc1 | 4.18 µM |
| CN(C)CC(CCC(CN(C)C)C(O)(c1ccccc1)c1ccccc1)C(O)(c1ccccc1)c1ccccc1 (centres undefined) | 7.9 µM |
| CC1(C)CCSC(/C=C/c2ccccc2)=N1 | > 80 µM (inactive) |
| Oc1c(CN2CCc3ccccc3C2)cc(Cl)c2cccnc12 | 12 µM |
| Cc1ccc(C)c(NC(=O)/C(C#N)=C/c2cn(CC(=O)NCc3ccco3)c3ccccc23)c1 | > 80 µM (inactive) |
| Cc1cc(C)nc(S/C=C/C(=O)c2ccccc2)n1 | 6.72 µM |
| CCCCOc1ccc(N2C(=O)CC(N(O)c3ccccc3)C2=O)cc1 (centres undefined) | 7.25 µM |
| CC(C)N=c1scc(-c2cccs2)n1/N=C/c1ccc(O)c(O)c1O | 11.6 µM |
| Cc1ccc(-c2cc(NC(=O)CCl)n(-c3ccccc3)n2)cc1 | 6.42 µM |
| O=[N+]([O-])c1cc(O)c2ncccc2c1 | 13.3 µM |
| Cc1ccc(NC(=O)c2nc(S(=O)(=O)Cc3ccccc3C)ncc2Cl)cc1C | 8.51 µM |
| COc1cccc(N=Nc2ccc3cccnc3c2O)c1 | 10.2 µM |
| CC1(C)CC(=O)C(=Cc2cn(-c3ccccc3)nc2-c2ccccc2)C(=O)C1 | inactive |
| O=C(N/N=C/c1ccccn1)c1cc([N+](=O)[O-])cc([N+](=O)[O-])c1 | inactive |
| Cc1cccc(Cn2cc(/C=C/[N+](=O)[O-])c3ccccc32)c1 | 7.81 µM |
| O=C(CN1CCN(c2ccccc2F)CC1)c1ccc(O)c(O)c1 | inactive |
| COc1ccc(-c2cc(C(F)(F)F)nc(S(C)(=O)=O)n2)cc1OC | 9.31 µM |
| Cc1cccc(N=Nc2ccc(O)c3ncccc23)c1 | 7.28 µM |
| Cc1ccc(C(C)C)c(OCc2ccc(C(=O)N/N=C/c3ccc(O)c(O)c3)cc2)c1 | > 80 µM (inactive) |
| Cc1nc([N+](=O)[O-])c(Br)n1CC(=O)c1ccc(Cl)cc1 | > 80 µM (inactive) |

| Compound | EC50 |
| --- | --- |
| Cc1ccc2cccc(NS(=O)(=O)c3ccccc3)c2n1 | 3.53 µM |
| Cc1cccc2sc(NC(=O)c3cc(S(=O)(=O)N(C)C)ccc3N3CCCC3)nc12 | inactive |
| Cc1ccc(S(=O)(=O)N(C(=O)c2ccncc2)c2ccc(OC(=O)c3ccncc3)c3ccccc23)c(C)c1 | 16.7 µM |
| C=C(C(=O)c1ccccc1)C(C(=C)C(=O)c1ccccc1)c1ccc(OC)cc1 | 15.3 µM |
| Cc1ccc(C(C[N+](=O)[O-])n2nc(C)cc2C)cc1 (centres undefined) | 9.75 µM |
| CC(C)N1C/C(=C/c2ccsc2)C(=O)/C(=C/c2ccsc2)C1 | 7.08 µM |
| COc1ccc(/C=N/Nc2cc(C)nc(-n3nc(C)cc3C)n2)cc1 | 10.4 µM |
| Cc1ccc(C)c(NC(=S)c2ccccn2)c1 | inactive |
| COc1cc(SC#N)ccc1N=Cc1c(C)[nH]n(-c2ccc(Cl)cc2)c1=O | 11.9 µM |
| OCCNc1nc(Nc2ccc(Cl)c(Cl)c2)nc2ccccc12 | 11.7 µM |
| CSc1nnc(NC(=O)c2nc(S(=O)(=O)Cc3ccccc3)ncc2Cl)s1 | > 80 µM (inactive) |
| O=C1/C(=C/c2ccc(N3CCOCC3)o2)SC(=Nc2ccccc2)N1CCc1c[nH]c2ccccc12 | 16.6 µM |
| Cc1ccc(C(=O)/C=C/C(=O)c2ccc(C)cc2)cc1 | 8.35 µM |
| Cn1c2ccccc2c2cc(/C=N/NC(=O)c3cc(O)ccc3O)ccc21 | 5.37 µM |
| O=C1C(CSCc2ccccc2)NC(=S)N1c1ccccc1 (centres undefined) | inactive |
| O=C(Nc1ccc(Cl)cc1)/C(=C/c1cccc(O)c1)c1nc2ccccc2s1 | > 80 µM (inactive) |
| CC(=O)c1cccc(NC(=O)CSc2ncc(C(=O)Nc3ccccc3)c(=O)n2C)c1 | 7.28 µM |
| Oc1cc(-c2cccnc2)cc2cccnc12 | inactive |
| COc1cc2nc(=S)n3[nH]c(CCn4nc(C)cc4C)nc3c2cc1OC | 3.93 µM |
| Cc1ccc(CS(=O)(=O)c2ncc(Cl)c(C(=O)Nc3nnc(C(C)C)s3)n2)cc1 | > 80 µM (inactive) |
| N#CC1=C(N)OC2=C(CC/C2=C\c2ccccc2)C1c1ccccc1 (centres undefined) | 6.51 µM |
